In one assay the target is T1, human FIXa (Homo sapiens, UniProt P00740).
T1 construct: with (+) and without (−) addition of 50 ng human FIXaβ; purchased ERL (Enzyme Research Laboratories)
As to the kind of experiment: Chromogenic FVIII-like (FXa generation) assay with human FIXa added. The assay is classed as biochemical. As for the experimental part:
The chromogenic activity of these antibody preparations was measured in the following FXa generation kinetic assay: 10 μg of monoclonal antibody (in 25 μl) were transferred to microtiter plate wells and warmed to 37° C. Chromogenic substrate (S-2222), synthetic thrombin inhibitor (I-2581), factor IXa and FX were reconstituted in sterile water and FIXa/FX (both bovine) were mixed with phospholipids according to the supplier's protocol. Per reaction, 50 μl of the phospholipid/FIXa/FX solution were combined with 25 μl CaCl2 (25 mM) and 50 μl of the substrate/inhibitor cocktail. To start the reaction, 125 μl of the premix were added to the monoclonal antibody solution in the microtiter plates and incubated at 37° C. Absorbance at 405 nm and 490 nm of the samples was read at various times (5 min to 2 h) against a reagent blank ([…] TBS instead of monoclonal antibodies) in a Labsystems iEMS Reader MF™ microtiter plate reader using GENESIS™ software. In parallel, the same reactions were performed except that 50 ng human FIXa were added per reaction.
To analyze the FVIII-like (FIXa activating) activity of the peptides, an assay system based on a commercial available FVIII assay was developed (see examples 2 and 4). The basic principle is, that without a cofactor, FIXa will have very limited activity towards its natural substrate FX. […] The amount of FXa generated is monitored by cleavage of a chromogenic substrate. The principle of the revised chromogenic assay is described for two representative peptides: A1/3 and A1/5 (Table 2). Briefly, 25 μl aliquots of peptide stock solution (in imidazole buffer (IZ) 50 mM imidazole, 100 mM NaCl, pH 7.2) were transferred to microtiter plate wells and warmed to 37° C. Chromogenic FXa substrate (S-2222), synthetic thrombin inhibitor (I-2581), bovine FIXa and bovine FX were reconstituted in sterile water and FIXa/FX mixed with phospholipids according to the supplier's protocol. […] Per reaction, 50 μl of the phospholipid/FIXa/FX solution were combined with 25 μl CaCl2 (25 mM) and 50 μl of the substrate/inhibitor cocktail. To start the reaction, 125 μl of the premix were added to the peptide solution in the microtiter plate and incubated at 37° C. Absorbance at 405 nm and 490 nm of the samples was read at various times (5 min to 2 h) against a reagent blank in a Labsystems iEMS Reader MF™ microtiter plate reader using GENESIS™ software.

Another assay deals with FVIII deficient plasma. As to the kind of experiment: aPTT based one stage clotting assay in FVIII deficient plasma. It is filed as biochemical, human. As for the experimental part:
During normal hemostasis, FIX becomes initially activated either by the tissue factor (TF)/factor VIIa pathway or later on by activated factor XI (FXIa). Subsequent to its activation, FIXa associates on the platelet surface in a membrane bound complex with activated FVIII. […] Different amounts of antibody 193/AD3 or mouse IgG (as a control) were used in a standard aPTT based one stage clotting assay. Briefly, 100 μl of antibody-containing samples were incubated with 100 μl of FVIII deficient plasma (DP) and with 100 μl of DAPTTIN (PTT Reagent for determining activated Thromboplastin Time; IMMUNO AG) reagent, in a KC10A clotting analyzer. Where indicated, a total amount of 50 ng activated FIX was included in the reaction mixture. After a 4 minute incubation, the reaction was started by the addition of 100 μl CaCl2 (25 mM).
The peptides were also analyzed for their potential to reduce the clotting time in a FVIII deficient plasma. The aPTT based one stage clotting assay was essentially done as described (see example 6). Clotting times (time from starting the reaction to the “clot”-formation were compared either against FVIII, a buffer control (IZ) or a control peptide (scrambled version). The results of two typical clotting experiments done with two different aPTT reagents (DAPTTIN and Pathromtin SL) are shown in table 3A and table 3B.

“Also recorded” adds a separate entry of the source.

T1 sequence (P00740 47-191 limits assumed): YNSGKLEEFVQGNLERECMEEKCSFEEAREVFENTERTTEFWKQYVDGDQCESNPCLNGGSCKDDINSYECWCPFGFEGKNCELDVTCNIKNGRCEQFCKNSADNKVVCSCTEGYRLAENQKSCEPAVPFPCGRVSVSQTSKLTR
T1 sequence (P00740 227-461 limits assumed): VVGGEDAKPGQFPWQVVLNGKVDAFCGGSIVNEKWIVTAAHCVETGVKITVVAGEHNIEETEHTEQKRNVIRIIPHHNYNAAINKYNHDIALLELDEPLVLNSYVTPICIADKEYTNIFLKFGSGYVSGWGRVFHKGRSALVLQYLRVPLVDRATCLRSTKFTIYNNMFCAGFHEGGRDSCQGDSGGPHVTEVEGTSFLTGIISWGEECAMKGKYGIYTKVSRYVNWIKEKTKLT

In the case of EEEEGGGYYVNWYFDEEE [A1/2], at human FIXa (2.9 nM human FIXa), the “chromogenic FVIII-like activity (FXa generation)” value (“chromogenic FVIII-like activity” below) was “did not give any significant chromogenic activity”.
For the molecule EYGEGYGEVNEYDEFEWE [A1/4], the “chromogenic FVIII-like activity” value at human FIXa (2.9 nM human FIXa) is recorded as “did not give any significant chromogenic activity”.
As to FGVGYRGETRNFDW [B1/5], the “FIXa activating activity in chromogenic assay” value on human FIXa (data not shown) is “no activity”.
As for REGGGFTVNWYFDR [B1/4], the chromogenic activity entry at human FIXa (chromogenic FVIII assay, data not shown) was “some chromogenic activity”.
For the molecule RdRdRdGEYGVYWNGDFYRdRdRd [A1/3-Rd-srmb], the average clotting time worked out at 103 s in the assay with FVIII deficient plasma (Table 4, 1.25 μM, 2.2 nM FIXa); 107 s with FVIII deficient plasma (Table 4, 1.25 μM, w/o FIXa); 105 s with FVIII deficient plasma (Table 4, 2.5 μM, 2.2 nM FIXa); 112 s in the assay with FVIII deficient plasma (Table 4, 2.5 μM, w/o FIXa); 108 s with FVIII deficient plasma (Table 4, 5 μM, 2.2 nM FIXa); 113 s in the assay with FVIII deficient plasma (Table 4, 5 μM, w/o FIXa). In addition, the average clotting time in the assay with FVIII deficient plasma (Table 4, 7.5 μM, 2.2 nM FIXa) amounted to 107 s; with FVIII deficient plasma (Table 4, 7.5 μM, w/o FIXa), 114 s; with FVIII deficient plasma (Table 4, 10 μM, 2.2 nM FIXa), 108 s; in the assay with FVIII deficient plasma (Table 4, 10 μM, w/o FIXa), 116 s; in the assay on FVIII deficient plasma (Table 4, 12.5 μM, 2.2 nM FIXa) it was 108 s; in the assay with FVIII deficient plasma (Table 4, 12.5 μM, w/o FIXa) it was 118 s. For the same molecule, the average clotting time in the assay on FVIII deficient plasma (Table 4, 15 μM, 2.2 nM FIXa) was found to be 113 s; in the assay on FVIII deficient plasma (Table 4, 15 μM, w/o FIXa), 122 s. In addition, the clotting time in the assay with FVIII deficient plasma (Table 4, 1.25 μM, 2.2 nM FIXa, duplicate 1) turned out to be 101.1 s; in the assay with FVIII deficient plasma (Table 4, 1.25 μM, 2.2 nM FIXa, duplicate 2), 105.3 s; in the assay with FVIII deficient plasma (Table 4, 1.25 μM, w/o FIXa, duplicate 1), 107.2 s; in the assay with FVIII deficient plasma (Table 4, 1.25 μM, w/o FIXa, duplicate 2) it was 107.1 s; in the assay on FVIII deficient plasma (Table 4, 2.5 μM, 2.2 nM FIXa, duplicate 1), 105 s; with FVIII deficient plasma (Table 4, 2.5 μM, 2.2 nM FIXa, duplicate 2) it was 104.2 s. For the same molecule, the clotting time came out at 111.9 s with FVIII deficient plasma (Table 4, 2.5 μM, w/o FIXa, duplicate 1); 111.9 s in the assay with FVIII deficient plasma (Table 4, 2.5 μM, w/o FIXa, duplicate 2); 108.5 s with FVIII deficient plasma (Table 4, 5 μM, 2.2 nM FIXa, duplicate 1); 108.2 s with FVIII deficient plasma (Table 4, 5 μM, 2.2 nM FIXa, duplicate 2); 113.1 s with FVIII deficient plasma (Table 4, 5 μM, w/o FIXa, duplicate 1); 112.4 s in the assay on FVIII deficient plasma (Table 4, 5 μM, w/o FIXa, duplicate 2). Further, the clotting time with FVIII deficient plasma (Table 4, 7.5 μM, 2.2 nM FIXa, duplicate 1) is 107.6 s; in the assay on FVIII deficient plasma (Table 4, 7.5 μM, 2.2 nM FIXa, duplicate 2), 106.6 s; with FVIII deficient plasma (Table 4, 7.5 μM, w/o FIXa, duplicate 1) it was 114.6 s; in the assay with FVIII deficient plasma (Table 4, 7.5 μM, w/o FIXa, duplicate 2), 113.6 s; with FVIII deficient plasma (Table 4, 10 μM, 2.2 nM FIXa, duplicate 1), 107.2 s; with FVIII deficient plasma (Table 4, 10 μM, 2.2 nM FIXa, duplicate 2) it was 107.8 s. For the same molecule, the clotting time in the assay on FVIII deficient plasma (Table 4, 10 μM, w/o FIXa, duplicate 1) amounted to 115.8 s; with FVIII deficient plasma (Table 4, 10 μM, w/o FIXa, duplicate 2), 115.3 s; with FVIII deficient plasma (Table 4, 12.5 μM, 2.2 nM FIXa, duplicate 1) it was 108.1 s; in the assay on FVIII deficient plasma (Table 4, 12.5 μM, 2.2 nM FIXa, duplicate 2) it was 107.8 s; in the assay with FVIII deficient plasma (Table 4, 12.5 μM, w/o FIXa, duplicate 1), 117.2 s; in the assay with FVIII deficient plasma (Table 4, 12.5 μM, w/o FIXa, duplicate 2), 118 s. The clotting time was found to be 112.7 s in the assay with FVIII deficient plasma (Table 4, 15 μM, 2.2 nM FIXa, duplicate 1); 112.4 s in the assay with FVIII deficient plasma (Table 4, 15 μM, 2.2 nM FIXa, duplicate 2); 121.9 s with FVIII deficient plasma (Table 4, 15 μM, w/o FIXa, duplicate 1); 121.3 s with FVIII deficient plasma (Table 4, 15 μM, w/o FIXa, duplicate 2).
For the molecule VRYRNRYRWGYRGRFGDE [A1/5], the “chromogenic FVIII-like activity” value at human FIXa (2.9 nM human FIXa) was “inactive; also recorded: does not give rise to any FXa generation”. Also, the chromogenic activity result at human FIXa (12 μM peptide, 2.3 nM human FIXa) is on record as “no significant FXa generation”.

B1: 198/B1: anti-FIX/FIXa monoclonal IgG, ECACC No. 99090925; 198/AB2 is an identical subclone (protein)
scFv: EVQLQESGGGLVKPGGSLKLSCAASGFTFSSYTMSWVRQTPEKRLEWVATISSGGSSTYYPDSVKGRFTISRDNAKNTLYLQMSSLRSEDTAMYYCTREGGGFTVNWYFDVWGAGTLVTVSAGGGGSGGRASGGGGSENVLTQSPASLAVSLGQRATISCRASESVDSYGYNFMHWYQQIPGQPPKLLIYRASNLESGIPARFSGSGSRTDFTLTINPVEADDVATYYCQQSNEDPLTFGTGTRLEIKR
modifications: scFv derived from IgG; Description of Artificial Sequence:scFv from hybridoma cell line 198/AB2 (subclone of 198/B1)
notes: anti-FIX/FIXa monoclonal IgG, ECACC No. 99090925; 198/AB2 is an identical subclone
Take B1: the procoagulant activity entry with FVIII deficient plasma (one-stage clotting assay in the presence of FIXa) was “show procoagulant activity”.

B2: MycHis-198AB2#102: 198/B1 (subclone AB2) scFv fragment with c-myc-tag and His6-tag (protein)
scFv: B1 scFv
modifications: left off: small tags and cut ends
notes: 198/B1 (subclone AB2) scFv fragment with c-myc-tag and His6-tag
For the molecule B2, in the assay with human FIXa (2.3 nM human FIXa), the “chromogenic FVIII-like activity” value is “gave rise to a substantial FXa generation”.

B3: 198/A1 Fab fragment: Fab fragment of antibody 198/A1 made with papain, purified on protein L (antibody, V domains shown)
VH: EVQLQESGGGLVKPGGSLKLSCAASGFIFSSYTMSWVRQTPEKRLEWVATISSGGSSTYYPDSVKGRFTISRDNAKNTLYLQMSSLKSEDTAMYHCTREGGGYYVNWYFDVWGAGTTLTVSS
VL: DIELTQSPASLAVSLGQRATISCRASESVDSYGKSFMHWYQQKPGQPPKLLIYRASNLESGIPARFSGSGSRTDFTLTINPVEADDVATYYCQQSNEDPLTFGAGTRLEIKR
For the molecule B3, in the assay with human FIXa (2.3 nM human FIXa), the “chromogenic FVIII-like activity” value is listed as “still gives rise to FIX dependent FXa generation” and the “chromogenic activity compared to intact antibody” value is reported as “somewhat less activity”.

B4: 8860-M/H#4c: unrelated scFv of #8860 with c-myc-tag and His6-tag, negative control (protein)
scFv: EVQLQQSGPELVKPGASVKISCKASGYAFSSSWMNWVKQRPGQGLEWIGRIYPGNGDTNYNGKFKGKATLTADKSSSTAYMQLSSLTSVDSAVYFCADGNVYYYAMDYWGQGTSVTVSSGGGGSGGRASGGGGSQIVLTQSPASLAVSLGQRATISCRASKSVSTSGYSYMHWYQQKPGQPPKLLIYLASNLESGVPARFSGSGSGTDFTLNIHPVEEEDAATYYCQHSRELPRTFGGGTKLEIKRAAAEQKLISEEDLNGAAHHHHHH
Turning to B4, the “chromogenic FVIII-like activity” value with human FIXa (2.3 nM human FIXa) is “did not”.

(Values after patent US7279161B2, “Factor IX/factor IXa activating antibodies and antibody derivatives” (Baxter Aktiengesellschaft, priority 1999, dated 2007).)
